Each structure is given as a SMILES string.

The assay deals with T1, human CB2R (Homo sapiens, UniProt P34972).
T1 construct: host or cells: CHO cells
T1 sequence (P34972 whole entry): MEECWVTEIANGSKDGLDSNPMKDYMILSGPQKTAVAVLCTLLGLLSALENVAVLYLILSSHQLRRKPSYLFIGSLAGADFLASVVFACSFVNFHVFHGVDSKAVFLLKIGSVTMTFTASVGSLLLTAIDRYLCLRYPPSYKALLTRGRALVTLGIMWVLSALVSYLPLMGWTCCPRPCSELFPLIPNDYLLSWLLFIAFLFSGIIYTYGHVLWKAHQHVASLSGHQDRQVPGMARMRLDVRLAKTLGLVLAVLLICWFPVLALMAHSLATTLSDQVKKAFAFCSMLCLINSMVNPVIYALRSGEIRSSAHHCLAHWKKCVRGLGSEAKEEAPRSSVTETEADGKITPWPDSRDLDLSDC
Nature of the assay: CB2R mediated modulation of cAMP synthesis. Conditions: found through the use of the above described assays (binding and cAMP); CHO cells expressing human CB2R, forskolin-stimulated cAMP. It counts as cell-based. In a few lines:
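CHO cells expressing human CB2R were treated for 30 min at 37 °C with compound in buffer containing 1 mM IBMX, 0.25% BSA and 10 uM forskolin. cAMP was measured after lysis. EC50 is the concentration giving 50% inhibition of forskolin-stimulated cAMP, scaled to the level set by 1 uM CP55940, fitted by four-parameter logistic.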
Take `CC(C)(C(=O)Nc1cccc(C(F)(F)F)n1)S(=O)(=O)c1ccc(Cl)nc1` [2-(6-Chloro-pyridine-3-sulfonyl)-2-methyl-N-(6-trifluoromethyl-pyridin-2-yl)-propionamide]: the agonistic activity result was “agonistic activity”.

`CC(C)(C(=O)Nc1ccc(C(F)(F)F)cn1)S(=O)(=O)c1ccc(F)cc1` [2-(4-Fluoro-benzenesulfonyl)-2-methyl-N-(5-trifluoromethyl-pyridin-2-yl)-propionamide]: the agonistic activity entry is reported as “agonistic activity”.

In the case of `CC(C)(C)c1cc(NC(=O)C2(S(=O)(=O)c3ccc(C(F)(F)F)cc3)CCOCC2)no1` [4-(4-Trifluoromethyl-benzenesulfonyl)-tetrahydro-pyran-4-carboxylic acid (5-tert-butyl-isoxazol-3-yl)-amide], the agonistic activity entry was “agonistic activity”.

As to `CC(C)(C)c1cc(NC(=O)C(C)(C)S(=O)(=O)c2ccc(Cl)s2)no1` [N-(5-tert-Butyl-isoxazol-3-yl)-2-(5-chloro-thiophene-2-sulfonyl)-2-methyl-propionamide], the agonistic activity result was “agonistic activity”.

Consider `CCCc1cc(NC(=O)C(C)(C)S(=O)(=O)c2ccc(OC)cc2)on1` [2-[(4-methoxyphenyl)sulfonyl]-2-methyl-N-(3-propylisoxazol-5-yl)propanamide], for which the agonistic activity result is listed as “agonistic activity”.

As for `CC(C)(C)c1cc(NC(=O)C(C)(C)S(=O)(=O)c2ccc(S(C)(=O)=O)cc2)no1` [N-(5-tert-Butyl-isoxazol-3-yl)-2-(4-methanesulfonyl-benzenesulfonyl)-2-methyl-propionamide], the agonistic activity result is given as “agonistic activity”.

On to `COc1ccc(NC(=O)C(C)(C)S(=O)(=O)c2ccc(Cl)cc2)cn1` [2-(4-Chloro-benzenesulfonyl)-N-(6-methoxy-pyridin-3-yl)-2-methyl-propionamide], for which the agonistic activity result was “agonistic activity”.

Regarding `CC(C)(C(=O)Nc1cc(-c2cccs2)no1)S(=O)(=O)c1ccc(Cl)cc1` [2-(4-Chloro-benzenesulfonyl)-2-methyl-N-(3-thiophen-2-yl-isoxazol-5-yl)-propionamide], the agonistic activity result is “agonistic activity”.

For the molecule `CC(C)(C(=O)Nc1nc(C2CCCCC2)cs1)S(=O)(=O)c1ccc(S(C)(=O)=O)cc1` [N-(4-cyclohexyl-1,3-thiazol-2-yl)-2-methyl-2-{[4-(methylsulfonyl)phenyl]sulfonyl}propanamide], the agonistic activity result is reported as “agonistic activity”.

As to `CCCc1cc(NC(=O)C(C)(C)S(=O)(=O)c2ccc(Cl)cc2F)on1` [2-[(4-chloro-2-fluorophenyl)sulfonyl]-2-methyl-N-(3-propylisoxazol-5-yl)propanamide], the agonistic activity entry is listed as “agonistic activity”.

On to `CC(C)(C(=O)Nc1cc(-c2ccccc2)no1)S(=O)(=O)c1ccc(Cl)cc1` [2-(4-Chloro-benzenesulfonyl)-2-methyl-N-(3-phenyl-isoxazol-5-yl)-propionamide], for which the agonistic activity result is recorded as “agonistic activity”.

Regarding `Cc1nc(NC(=O)C(C)(C)S(=O)(=O)c2ccc(Cl)cc2)sc1C` [2-(4-Chloro-benzenesulfonyl)-N-(4,5-dimethyl-thiazol-2-yl)-2-methyl-propionamide], the agonistic activity entry is “agonistic activity”.

With `Cc1ccc(S(=O)(=O)C(C)(C)C(=O)Nc2ccc(C(F)(F)F)cn2)cc1` [2-Methyl-2-(toluene-4-sulfonyl)-N-(5-trifluoromethyl-pyridin-2-yl)-propionamide], the agonistic activity result is recorded as “agonistic activity”.

As for `Cc1ccc(S(=O)(=O)C(C)(C)C(=O)Nc2ccc(C(F)(F)F)cn2)cc1F` [2-(3-Fluoro-4-methyl-benzenesulfonyl)-2-methyl-N-(5-trifluoromethyl-pyridin-2-yl)-propionamide], the agonistic activity entry is given as “agonistic activity”.

With `CC(C)(C)c1cc(NC(=O)C(C)(C)S(=O)(=O)c2ccsc2)no1` [N-(5-tert-Butyl-isoxazol-3-yl)-2-methyl-2-(thiophene-3-sulfonyl)-propionamide], the agonistic activity result was “agonistic activity”.

For `CC(C)(C)c1cnc(NC(=O)C(C)(C)S(=O)(=O)c2ccc(Cl)cc2)s1` [N-(5-tert-Butyl-thiazol-2-yl)-2-(4-chloro-benzenesulfonyl)-2-methyl-propionamide], the agonistic activity entry is on record as “agonistic activity”.

On to `Cn1nc(-c2ccccc2)cc1NC(=O)C(C)(C)S(=O)(=O)c1ccc(F)cc1F` [2-(2,4-Difluoro-benzenesulfonyl)-2-methyl-N-(2-methyl-5-phenyl-2H-pyrazol-3-yl)-propionamide], for which the agonistic activity result is given as “agonistic activity”.

As to `CC(C)(C(=O)Nc1cccnc1)S(=O)(=O)c1ccc(C(F)(F)F)cc1` [2-Methyl-N-pyridin-3-yl-2-(4-trifluoromethyl-benzenesulfonyl)-propionamide], the agonistic activity result is “agonistic activity”.

For the molecule `CC(C)(C(=O)Nc1ccc2ccccc2c1)S(=O)(=O)c1ccc(Cl)cc1` [2-(4-Chloro-benzenesulfonyl)-2-methyl-N-naphthalen-2-yl-propionamide], the agonistic activity entry was “agonistic activity”.

As for `CC(C)(C(=O)Nc1ccc(C(F)(F)F)cn1)S(=O)(=O)c1ccc(Br)cc1` [2-(4-Bromo-benzenesulfonyl)-2-methyl-N-(5-trifluoromethyl-pyridin-2-yl)-propionamide], the agonistic activity result is given as “agonistic activity”.

Turning to `Cc1ccc(S(=O)(=O)C(C)(C)C(=O)Nc2cccc(C(F)(F)F)n2)cc1F` [2-(3-Fluoro-4-methyl-benzenesulfonyl)-2-methyl-N-(6-trifluoromethyl-pyridin-2-yl)-propionamide], the agonistic activity result was “agonistic activity”.

`Cn1nc(C(C)(C)C)cc1NC(=O)C(C)(C)S(=O)(=O)c1ccccc1` [2-Benzenesulfonyl-N-(5-tert-butyl-2-methyl-2H-pyrazol-3-yl)-2-methyl-propionamide]: the agonistic activity result was “agonistic activity”.

With `CC(C)(C(=O)Nc1nc(C2CC2)cs1)S(=O)(=O)c1ccc(Cl)cc1F` [2-[(4-chloro-2-fluorophenyl)sulfonyl]-N-(4-cyclopropyl-1,3-thiazol-2-yl)-2-methylpropanamide], the agonistic activity result is on record as “agonistic activity”.

Consider `CC(C)(C)c1cccc(NC(=O)C(C)(C)S(=O)(=O)c2ccc(Cl)cc2)c1` [N-(3-tert-Butyl-phenyl)-2-(4-chloro-benzenesulfonyl)-2-methyl-propionamide], for which the agonistic activity result is on record as “agonistic activity”.

On to `CC(C)(C(=O)Nc1nsc(-c2ccccc2)n1)S(=O)(=O)c1ccc(Cl)cc1` [2-(4-Chloro-benzenesulfonyl)-2-methyl-N-(5-phenyl-[1,2,4]thiadiazol-3-yl)-propionamide], for which the agonistic activity entry is “agonistic activity”.

Regarding `CC(C)(C(=O)Nc1nc2c(s1)CCCC2)S(=O)(=O)c1ccc(S(C)(=O)=O)cc1` [2-methyl-2-{[4-(methylsulfonyl)phenyl]sulfonyl}-N-(4,5,6,7-tetrahydro-1,3-benzothiazol-2-yl)propanamide], the agonistic activity result is reported as “agonistic activity”.

For the molecule `CC(C)(C(=O)Nc1ccc(C(F)(F)F)cn1)S(=O)(=O)c1ccc(Cl)cc1F` [2-(4-Chloro-2-fluoro-benzenesulfonyl)-2-methyl-N-(5-trifluoromethyl-pyridin-2-yl)-propionamide], the agonistic activity result is reported as “agonistic activity”.

`COc1ccc(S(=O)(=O)C(C)(C)C(=O)Nc2cnc3ccccc3c2)cc1` [2-(4-Methoxy-benzenesulfonyl)-2-methyl-N-quinolin-3-yl-propionamide]: the agonistic activity entry is “agonistic activity”.

Consider `CC(C)C(C(=O)Nc1cccc(C(F)(F)F)n1)S(=O)(=O)c1ccc(C(F)(F)F)cc1` (stereo not drawn) [3-Methyl-2-(4-trifluoromethyl-benzenesulfonyl)-N-(6-trifluoromethyl-pyridin-2-yl)-butyramide], for which the agonistic activity entry is listed as “agonistic activity”.

Regarding `Cc1sc(NC(=O)C(C)(C)S(=O)(=O)c2ccc(Cl)cc2)nc1-c1ccc(F)cc1` [2-[(4-chlorophenyl)sulfonyl]-N-[4-(4-fluorophenyl)-5-methyl-1,3-thiazol-2-yl]-2-methylpropanamide], the agonistic activity entry is listed as “agonistic activity”.

Take `COc1ccc(S(=O)(=O)C(C)(C)C(=O)Nc2cccc(C(F)(F)F)n2)cc1F` [2-(3-Fluoro-4-methoxy-benzenesulfonyl)-2-methyl-N-(6-trifluoromethyl-pyridin-2-yl)-propionamide]: the agonistic activity result is “agonistic activity”.

As to `Cn1nc(C2CC2)cc1NC(=O)C(C)(C)S(=O)(=O)c1ccc(Cl)cc1` [2-(4-Chloro-benzenesulfonyl)-N-(5-cyclopropyl-2-methyl-2H-pyrazol-3-yl)-2-methyl-propionamide], the agonistic activity entry is recorded as “agonistic activity”.

Turning to `CC(C)(C(=O)Nc1cccc(C(F)(F)F)n1)S(=O)(=O)c1ccc(S(C)(=O)=O)cc1` [2-methyl-2-{[4-(methylsulfonyl)phenyl]sulfonyl}-N-[6-(trifluoromethyl)pyridin-2-yl]propanamide], the agonistic activity entry is “agonistic activity”.

`CC(C)(C)c1cc(NC(=O)C(C)(C)S(=O)(=O)c2ccc(C(F)(F)F)nc2)on1` [N-(3-tert-butylisoxazol-5-yl)-2-methyl-2-{[6-(trifluoromethyl)pyridin-3-yl]sulfonyl}propanamide]: the agonistic activity entry is given as “agonistic activity”.

Turning to `Cn1nc(C(C)(C)C)cc1NC(=O)C(C)(C)S(=O)(=O)c1cc(F)ccc1F` [N-(5-tert-Butyl-2-methyl-2H-pyrazol-3-yl)-2-(2,5-difluoro-benzenesulfonyl)-2-methyl-propionamide], the agonistic activity result is recorded as “agonistic activity”.

As for `CC(C)(C)c1cc(NC(=O)C(C)(C)S(=O)(=O)c2cccc3cccnc23)no1` [N-(5-tert-Butyl-isoxazol-3-yl)-2-methyl-2-(quinoline-8-sulfonyl)-propionamide], the agonistic activity result is “agonistic activity”.

Values taken from patent US8299111B2, “Compounds which modulate the CB2 receptor” (Boehringer Ingelheim International GmbH, priority 2006, dated 2012).
